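Cultured in 96-well plates, cells were exposed to test compound for 48 hours across five concentrations. GI50 marks 50% less growth. TGI marks complete inhibition of growth.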
Columns and labels:
Experiment in all cases: DTP human tumour cell line panel, 48 h
A498 renal = tested on: A498 renal
SF-268 CNS = tested on: SF-268 CNS
SNB-19 CNS = tested on: SNB-19 CNS
OVCAR-4 ovarian = tested on: OVCAR-4 ovarian
ACHN renal = tested on: ACHN renal
COLO 205 colon = tested on: COLO 205 colon
UACC-62 melanoma = tested on: UACC-62 melanoma
RXF 393 renal = tested on: RXF 393 renal
EKVX NSCLC = tested on: EKVX NSCLC
OVCAR-3 ovarian = tested on: OVCAR-3 ovarian
SK-MEL-5 melanoma = tested on: SK-MEL-5 melanoma
HOP-62 NSCLC = tested on: HOP-62 NSCLC
HOP-92 NSCLC = tested on: HOP-92 NSCLC
MALME-3M melanoma = tested on: MALME-3M melanoma
UO-31 renal = tested on: UO-31 renal
HS 578T breast = tested on: HS 578T breast
IGROV1 ovarian = tested on: IGROV1 ovarian
A549 NSCLC = tested on: A549 NSCLC
SN12C renal = tested on: SN12C renal
PC-3 prostate = tested on: PC-3 prostate
HL-60(TB) leukemia = tested on: HL-60(TB) leukemia
OVCAR-5 ovarian = tested on: OVCAR-5 ovarian
K-562 leukemia = tested on: K-562 leukemia
UACC-257 melanoma = tested on: UACC-257 melanoma
SK-OV-3 ovarian = tested on: SK-OV-3 ovarian
RPMI-8226 leukemia = tested on: RPMI-8226 leukemia
HT29 colon = tested on: HT29 colon
HCT-116 colon = tested on: HCT-116 colon
CAKI-1 renal = tested on: CAKI-1 renal
HCC-2998 colon = tested on: HCC-2998 colon
SW-620 colon = tested on: SW-620 colon
SK-MEL-28 melanoma = tested on: SK-MEL-28 melanoma
NCI-H522 lung = tested on: NCI-H522 lung
HCT-15 colon = tested on: HCT-15 colon
LOX IMVI melanoma = tested on: LOX IMVI melanoma
SNB-75 CNS = tested on: SNB-75 CNS
T-47D breast = tested on: T-47D breast
MCF7 breast = tested on: MCF7 breast
786-0 renal = tested on: 786-0 renal
NCI/ADR-RES ovarian = tested on: NCI/ADR-RES ovarian
U251 CNS = tested on: U251 CNS
M14 melanoma = tested on: M14 melanoma
TK-10 renal = tested on: TK-10 renal
DU-145 prostate = tested on: DU-145 prostate
KM12 colon = tested on: KM12 colon
BT-549 breast = tested on: BT-549 breast
MOLT-4 leukemia = tested on: MOLT-4 leukemia
SF-295 CNS = tested on: SF-295 CNS
MDA-MB-231 breast = tested on: MDA-MB-231 breast
OVCAR-8 ovarian = tested on: OVCAR-8 ovarian
MDA-MB-435 = tested on: MDA-MB-435
SF-539 CNS = tested on: SF-539 CNS
NCI-H226 lung = tested on: NCI-H226 lung
NCI-H460 lung = tested on: NCI-H460 lung
NCI-H23 lung = tested on: NCI-H23 lung
SK-MEL-2 melanoma = tested on: SK-MEL-2 melanoma
CCRF-CEM leukemia = tested on: CCRF-CEM leukemia

C[C@@H]1CN(c2ccc3ncc(C#Cc4cncc(C(=O)Nc5ccc(CN6CCN(C)CC6)c(C(F)(F)F)c5)c4)n3n2)C[C@H](C)O1
GI50 (A498 renal): 118 nM
TGI (A498 renal): 253 nM
GI50 (SF-268 CNS): 111 nM
TGI (SF-268 CNS): 522 nM
GI50 (SNB-19 CNS): 325 nM
TGI (SNB-19 CNS): 1150 nM
GI50 (OVCAR-4 ovarian): 123 nM
TGI (OVCAR-4 ovarian): 1590 nM
GI50 (ACHN renal): 37.5 nM
TGI (ACHN renal): 211 nM
GI50 (COLO 205 colon): 135 nM
TGI (COLO 205 colon): 781 nM
GI50 (UACC-62 melanoma): 138 nM
TGI (UACC-62 melanoma): 1010 nM
GI50 (RXF 393 renal): 30.1 nM
TGI (RXF 393 renal): 141 nM
GI50 (EKVX NSCLC): 39.9 nM
TGI (EKVX NSCLC): 300 nM
GI50 (OVCAR-3 ovarian): 98.2 nM
TGI (OVCAR-3 ovarian): 1150 nM
GI50 (SK-MEL-5 melanoma): 270 nM
TGI (SK-MEL-5 melanoma): 1160 nM
GI50 (HOP-62 NSCLC): 121 nM
TGI (HOP-62 NSCLC): 844 nM
GI50 (HOP-92 NSCLC): 28.8 nM
TGI (HOP-92 NSCLC): 118 nM
GI50 (MALME-3M melanoma): 77.8 nM
TGI (MALME-3M melanoma): 251 nM
GI50 (UO-31 renal): 79.8 nM
TGI (UO-31 renal): 361 nM
GI50 (HS 578T breast): 32.8 nM
TGI (HS 578T breast): 348 nM
GI50 (IGROV1 ovarian): 34.4 nM
TGI (IGROV1 ovarian): 201 nM
GI50 (A549 NSCLC): 63.6 nM
TGI (A549 NSCLC): 410 nM
GI50 (SN12C renal): 26.9 nM
TGI (SN12C renal): 275 nM
GI50 (PC-3 prostate): 128 nM
TGI (PC-3 prostate): 1810 nM
GI50 (HL-60(TB) leukemia): 50.7 nM
TGI (HL-60(TB) leukemia): 312 nM
GI50 (OVCAR-5 ovarian): 157 nM
TGI (OVCAR-5 ovarian): 975 nM
TGI (K-562 leukemia): 359 nM
GI50 (UACC-257 melanoma): 228 nM
TGI (UACC-257 melanoma): 1410 nM
GI50 (SK-OV-3 ovarian): 216 nM
TGI (SK-OV-3 ovarian): 736 nM
GI50 (RPMI-8226 leukemia): 258 nM
TGI (RPMI-8226 leukemia): 5640 nM
GI50 (HT29 colon): 67.4 nM
TGI (HT29 colon): 1100 nM
GI50 (HCT-116 colon): 34.5 nM
TGI (HCT-116 colon): 274 nM
GI50 (CAKI-1 renal): 33.9 nM
TGI (CAKI-1 renal): 157 nM
GI50 (HCC-2998 colon): 153 nM
TGI (HCC-2998 colon): 956 nM
GI50 (SW-620 colon): 57.7 nM
TGI (SW-620 colon): 2450 nM
GI50 (SK-MEL-28 melanoma): 295 nM
TGI (SK-MEL-28 melanoma): 1340 nM
GI50 (NCI-H522 lung): 33.9 nM
TGI (NCI-H522 lung): 181 nM
GI50 (HCT-15 colon): 45.4 nM
TGI (HCT-15 colon): 471 nM
GI50 (LOX IMVI melanoma): 36.8 nM
TGI (LOX IMVI melanoma): 144 nM
GI50 (SNB-75 CNS): 102 nM
TGI (SNB-75 CNS): 235 nM
GI50 (T-47D breast): 363 nM
TGI (T-47D breast): 5360 nM
GI50 (MCF7 breast): 51.3 nM
TGI (MCF7 breast): 651 nM
GI50 (786-0 renal): 48.3 nM
TGI (786-0 renal): 202 nM
GI50 (NCI/ADR-RES ovarian): 445 nM
TGI (NCI/ADR-RES ovarian): 1910 nM
GI50 (U251 CNS): 119 nM
TGI (U251 CNS): 1300 nM
GI50 (M14 melanoma): 36.5 nM
TGI (M14 melanoma): 322 nM
GI50 (TK-10 renal): 68.3 nM
TGI (TK-10 renal): 400 nM
GI50 (DU-145 prostate): 50.4 nM
TGI (DU-145 prostate): 292 nM
TGI (KM12 colon): 563 nM
GI50 (BT-549 breast): 135 nM
TGI (BT-549 breast): 411 nM
GI50 (MOLT-4 leukemia): 77.7 nM
TGI (MOLT-4 leukemia): 529 nM
GI50 (SF-295 CNS): 214 nM
TGI (SF-295 CNS): 1530 nM
GI50 (MDA-MB-231 breast): 32 nM
TGI (MDA-MB-231 breast): 223 nM
GI50 (OVCAR-8 ovarian): 176 nM
TGI (OVCAR-8 ovarian): 991 nM
GI50 (MDA-MB-435): 86.1 nM
TGI (MDA-MB-435): 1110 nM
GI50 (SF-539 CNS): 33.2 nM
TGI (SF-539 CNS): 135 nM
GI50 (NCI-H226 lung): 33.9 nM
TGI (NCI-H226 lung): 334 nM
GI50 (NCI-H460 lung): 74.9 nM
TGI (NCI-H460 lung): 732 nM
GI50 (NCI-H23 lung): 102 nM
TGI (NCI-H23 lung): 322 nM
GI50 (SK-MEL-2 melanoma): 130 nM
TGI (SK-MEL-2 melanoma): 294 nM
GI50 (CCRF-CEM leukemia): 200 nM
TGI (CCRF-CEM leukemia): 10300 nM
